According to ChEMBL document CHEMBL4385621, “Synthesis and in vitro cytotoxicity evaluation of β-carboline-combretastatin carboxamides as apoptosis inducing agents: DNA intercalation and topoisomerase-II inhibition” (Bioorg Med Chem, 2019):
Calls of active or inactive are those of the source. The calls are words filed in the database; no cut-off is given here.

Tests used:
HeLa = experiment: Antiproliferative activity against human HeLa cells assessed as reduction in cell viability after 48 hrs by SRB assay; format: functional, cell-based
DU-145 = experiment: Antiproliferative activity against human DU145 cells assessed as reduction in cell viability after 48 hrs by SRB assay; format: functional, cell-based; conditions: DU-145, 48 h
A549 [1] = experiment: Antiproliferative activity against human A549 cells assessed as reduction in cell viability after 48 hrs by SRB assay; format: functional, cell-based; conditions: A549, 48 h
A549 [2] = experiment: Cell cycle arrest in human A549 cells assessed as increase in accumulation of G2/M phase at 1 to 5 uM after 24 hrs by propidium iodide staining based flow cytometric analysis; format: functional
A549 [3] = experiment: Cell cycle arrest in human A549 cells assessed as reduction in G0/G1 phase at 1 to 5 uM after 24 hrs by propidium iodide staining based flow cytometric analysis; format: functional
[4] = molecular target: DNA topoisomerase II (Homo sapiens) (UniProt P11388+Q02880); experiment: Inhibition of human topoisomerase-2 assessed as reduction in decatenation of kDNA at 10 uM incubated for 30 mins by ethidium bromide staining based agarose gel electrophoresis method; format: protein assay
A549 [5] = experiment: Induction of apoptosis in human A549 cells assessed as reduction in cell viability at 1 to 5 uM after 24 hrs by phase contrast microscopic method; format: functional, cell-based
A549 [6] = experiment: Induction of apoptosis in human A549 cells assessed as cell shrinkage at 1 to 5 uM after 24 hrs by phase contrast microscopic method; format: functional, cell-based
A549 [7] = experiment: Induction of apoptosis in human A549 cells assessed as cell detachment from substratum at 1 to 5 uM after 24 hrs by phase contrast microscopic method; format: functional, cell-based
A549 [8] = experiment: Induction of apoptosis in human A549 cells assessed as nuclear fragmentation at 1 uM after 24 hrs by Hoechst […] staining based fluorescence microscopic method; format: functional, cell-based
A549 [9] = experiment: Induction of apoptosis in human A549 cells assessed as chromatin condensation at 1 uM after 24 hrs by Hoechst […] staining based fluorescence microscopic method; format: functional, cell-based
A549 [10] = experiment: Induction of apoptosis in human A549 cells assessed as increase in apoptotic nuclei at 3 to 5 uM after 24 hrs by Hoechst […] staining based fluorescence microscopic method; format: functional, cell-based
A549 [11] = experiment: Induction of apoptosis in human A549 cells assessed as increase in ROS generation at 1 to 5 uM after 24 hrs by Carboxy-DCFDA dye based fluorescence microscopic method; format: functional, cell-based
A549 [12] = experiment: Induction of apoptosis in human A549 cells assessed as viable cells at 1 uM after 24 hrs by Annexin V-FITC/propidium iodide staining based flow cytometry (reference value: 88.4%); format: functional; conditions: A549, 24 h, read-out: Activity
A549 [13] = experiment: Induction of apoptosis in human A549 cells assessed as early apoptotic cells at 1 uM after 24 hrs by Annexin V-FITC/propidium iodide staining based flow cytometry (reference value: 11.2%); format: functional
A549 [14] = experiment: Induction of apoptosis in human A549 cells assessed as late apoptotic cells at 1 uM after 24 hrs by Annexin V-FITC/propidium iodide staining based flow cytometry (reference value: 0.4%); format: functional
A549 [15] = experiment: Induction of apoptosis in human A549 cells assessed as necrotic cells at 1 uM after 24 hrs by Annexin V-FITC/propidium iodide staining based flow cytometry (reference value: 0%); format: functional
A549 [16] = experiment: Induction of apoptosis in human A549 cells assessed as viable cells at 3 uM after 24 hrs by Annexin V-FITC/propidium iodide staining based flow cytometry (reference value: 88.4%); format: functional; conditions: A549, 24 h, read-out: Activity
A549 [17] = experiment: Induction of apoptosis in human A549 cells assessed as early apoptotic cells at 3 uM after 24 hrs by Annexin V-FITC/propidium iodide staining based flow cytometry (reference value: 11.2%); format: functional
A549 [18] = experiment: Induction of apoptosis in human A549 cells assessed as late apoptotic cells at 3 uM after 24 hrs by Annexin V-FITC/propidium iodide staining based flow cytometry (reference value: 0.4%); format: functional
A549 [19] = experiment: Induction of apoptosis in human A549 cells assessed as necrotic cells at 3 uM after 24 hrs by Annexin V-FITC/propidium iodide staining based flow cytometry (reference value: 0%); format: functional
A549 [20] = experiment: Induction of apoptosis in human A549 cells assessed as viable cells at 5 uM after 24 hrs by Annexin V-FITC/propidium iodide staining based flow cytometry (reference value: 88.4%); format: functional; conditions: A549, 24 h, read-out: Activity
A549 [21] = experiment: Induction of apoptosis in human A549 cells assessed as early apoptotic cells at 5 uM after 24 hrs by Annexin V-FITC/propidium iodide staining based flow cytometry (reference value: 11.2%); format: functional
A549 [22] = experiment: Induction of apoptosis in human A549 cells assessed as late apoptotic cells at 5 uM after 24 hrs by Annexin V-FITC/propidium iodide staining based flow cytometry (reference value: 0.4%); format: functional
A549 [23] = experiment: Induction of apoptosis in human A549 cells assessed as necrotic cells at 5 uM after 24 hrs by Annexin V-FITC/propidium iodide staining based flow cytometry (reference value: 0%); format: functional
Calf thymus DNA [24] = experiment: Binding affinity to calf thymus DNA assessed as dissociation constant after 5 mins by UV-Visible spectroscopic method; format: nucleic-acid assay, Bos taurus
Calf thymus DNA [25] = experiment: Binding affinity to calf thymus DNA assessed as decrease in emission peak intensity by spectrofluorimetric method; format: nucleic-acid assay; conditions: Bos taurus
Calf thymus DNA [26] = experiment: Stabilization of calf thymus DNA assessed as hyperchromicity at DNA to compound ratio of 1:1 by circular dichroism spectropolarimetric analysis; format: nucleic-acid assay; conditions: Bos taurus
Calf thymus DNA [27] = experiment: Binding affinity to calf thymus DNA assessed as decrease in emission peak intensity using varying DNA level by spectrofluorimetric method; format: nucleic-acid assay; conditions: Bos taurus
Calf thymus DNA [28] = experiment: Binding affinity to calf thymus DNA assessed as hypochromicity after 5 mins by UV-Vis absorption spectral analysis; format: nucleic-acid assay; conditions: Bos taurus
Calf thymus DNA [29] = experiment: Binding affinity to calf thymus DNA assessed as hypochromicity at DNA to compound ratio of 1:1 to 1:2 by circular dichroism analysis; format: nucleic-acid assay; conditions: Bos taurus
Calf thymus DNA [30] = experiment: Binding affinity to calf thymus DNA assessed as unwinding effect at DNA to compound ratio of 1:1 to 1:2 by circular dichroism analysis; format: nucleic-acid assay; conditions: Bos taurus
Calf thymus DNA [31] = experiment: Binding affinity to calf thymus DNA assessed as confirmational change at DNA to compound ratio of 1:1 to 1:2 by circular dichroism analysis; format: nucleic-acid assay; conditions: Bos taurus
A549 [32] = experiment: Induction of apoptosis in human A549 cells after 24 hrs by Annexin V-FITC/propidium iodide staining based flow cytometry; format: functional, cell-based
Calf thymus DNA [33] = experiment: Effect on calf thymus DNA stabilization assessed as increase in negative band intensity by circular dichroism spectropolarimetric analysis; format: nucleic-acid assay; conditions: Bos taurus

Question: Which results are given for `COc1cc(/C(=C\c2ccc(C(F)(F)F)cc2)C(=O)NCc2cc3c([nH]c4ccccc43)c(-c3cccc(F)c3)n2)cc(OC)c1OC`?
Answer: IC50 (HeLa): 9.97 µM; IC50 (DU-145): 1.51 µM; IC50 (A549 [1]): 1.01 µM; Activity (A549 [2]): Dose-dependent effect; Activity (A549 [3]): Active; inhibition [4]: Active; Activity (A549 [5]): Active; Activity (A549 [6]): Active; Activity (A549 [7]): Active; Activity (A549 [8]): Active; Activity (A549 [9]): Active; Activity (A549 [10]): Active; Activity (A549 [11]): Active; viability at 1 µM (A549 [12]): 69.7%; Activity (A549 [13]): 20.4%; Activity (A549 [14]): 6.8%; Activity (A549 [15]): 3.2%; viability at 3 µM (A549 [16]): 62.8%; Activity (A549 [17]): 28.6%; Activity (A549 [18]): 6.7%; Activity (A549 [19]): 1.9%; viability at 5 µM (A549 [20]): 59.3%; Activity (A549 [21]): 33.4%; Activity (A549 [22]): 4.9%; Activity (A549 [23]): 2.4%; Kd (Calf thymus DNA [24]): 71 µM; Activity (Calf thymus DNA [25]): Active; Activity (Calf thymus DNA [26]): Active; Activity (Calf thymus DNA [27]): Active; Activity (Calf thymus DNA [28]): Active; Activity (Calf thymus DNA [29]): Active; Activity (Calf thymus DNA [30]): Active; Activity (Calf thymus DNA [31]): Active; Activity (A549 [32]): Dose-dependent effect; Activity (Calf thymus DNA [33]): Active
